# Like-named read-outs stand apart in the source and are kept apart here.
# Columns and labels:
# Test in all cases: Post-emergence action against weeds, greenhouse pot test, visual scoring
# Format in all cases: in vivo
# [1] = system: Abuthilon theophrasti (ABUTH); conditions: Abutilon theophrasti, 240 h, read-out: % activity found
# Experimental: (§1) Seeds or rhizome pieces of mono- and dicotyledonous harmful and useful plants were placed in peat pots (diameter 4 cm) filled with sandy loam and then covered with soil. The pots were kept in a greenhouse under optimum conditions. In addition, harmful plants encountered in paddy rice cultivation were cultivated in pots with a water level 2 cm above the soil surface.
# (§2) About three weeks after the start of the cultivation, the test plants were treated at the 2- to 3-leaf stage. The herbicides, formulated as powder or liquid concentrates, were, either alone or in the combinations according to the invention, sprayed in various dosages on to the green parts of the plants using an application rate of 600 l of water/ha (converted). For further cultivation of the plants, the pots were then again kept under optimum conditions in a greenhouse.
# (§3) The visual scoring of the herbicidal effects was carried out in intervals up to 21 days after the treatment. Scoring was carried out in percent in comparison to the untreated control plants. 0%=no herbicidal activity, 100%=complete herbicidal activity=complete kill.
# (§4) The percentages from the treatments with the herbicides alone (=individual application) and with the combinations according to the invention (=mixtures) were employed to calculate interactions using the method of Colby. When the observed efficacies of the mixtures exceed the formal sum of the values of the tests with individual applications, they also exceed the expected value according to Colby, which is calculated using the formula below (cf. S. R. Colby; in Weeds 15 (1967) pp. 20 to 22):
# (§5) Here: • A, B=activity of components A and B in percent at a dosage of a and b g of ai/ha (=gramm of active substance per hectare), respectively. • E=expected value in % at a dosage of a+b g of ai/ha.
# [2] = system: Matricaria inodora (MATIN); conditions: Tripleurospermum inodorum, read-out: % activity found
# Experimental: as §1, §2, §3, §4, §5
# [3] = system: Fallopia (ex Polygonum) convolvulus (POLCO); conditions: read-out: % activity found
# Experimental: as §1, §2, §3, §4, §5
# [4] = system: Cyperus esculentus (CYPES); conditions: 504 h, read-out: % activity found
# Experimental: as §1, §2, §3, §4, §5
# Viola tricolor (VIOTR) = conditions: read-out: % activity found
# Experimental: as §1, §2, §3, §4, §5
# [5] = system: Triticum aestivum (TRZAS); conditions: read-out: % activity found
# Experimental: as §1, §2, §3, §4, §5
# [6] = system: Pharbitis purpurea (PHBPU); conditions: Ipomoea purpurea, read-out: % activity found; for inhibition at 4 g/ha / inhibition at 12 g/ha: PHBPU; for inhibition at 4 g/ha: A-1 4 g of ai/ha; for inhibition at 12 g/ha: A-1 12 g of ai/ha
# Experimental: as §1, §2, §3, §4, §5
# Oryza sativa (ORYSA) = conditions: read-out: % activity found; for inhibition at 90 g/ha: ORYSA, B3-3 90 g of ai/ha
# Experimental: as §1, §2, §3, §4, §5
# [7] = system: Amaranthus retroflexus (AMARE); conditions: read-out: % activity found; for inhibition at 12 g/ha: A-1 12 g of ai/ha
# Experimental: as §1, §2, §3, §4, §5
# Avena fatua (AVEFA) = conditions: read-out: % activity found; for inhibition at 30 g/ha / inhibition at 90 g/ha: AVEFA
# Experimental: as §1, §2, §3, §4, §5
# Zea mays (ZEAMX) = conditions: read-out: % activity found; for inhibition at 30 g/ha / inhibition at 90 g/ha: ZEAMX
# Experimental: as §1, §2, §3, §4, §5
# [8] = system: Alopecurus myosuroides (ALOMY); conditions: 504 h, read-out: % activity found
# Experimental: as §1, §2, §3, §4, §5
# Setaria viridis (SETVI) = conditions: 504 h, read-out: % activity found
# Experimental: as §1, §2, §3, §4, §5
# [9] = system: Lolium multiflorum (LOLMU); conditions: read-out: % activity found
# Experimental: as §1, §2, §3, §4, §5
# [10] = 240 h, 10 DAT, B3-1 30 g of ai/ha
# [11] = 240 h, 10 DAT, B3-1 90 g of ai/ha
# [12] = 504 h, 21 DAT, B3-3 30 g of ai/ha
# [13] = 504 h, 21 DAT, B3-3 90 g of ai/ha
compound,measurement,setting,value
"CCSC(C)CC1CC(=O)C(/C(CC)=N/OC/C=C/Cl)=C(O)C1 (racemic) [B2-3, (E,E)-(±)-2-[1-[[(3-chloro-2-propenyl)oxy]imino]propyl]-5-[2-(ethylthio)propyl]-3-hydroxy-2-cyclohexen-1-one]",inhibition at 20 g/ha,[1],0%
same,inhibition at 60 g/ha,[1],0%
same,inhibition at 60 g/ha,[2]; 240 h,0%
same,inhibition at 20 g/ha,[2]; 504 h,0%
same,inhibition at 60 g/ha,[2]; 504 h,0%
same,inhibition at 20 g/ha,[3]; 240 h,0%
same,inhibition at 60 g/ha,[3]; 240 h,0%
same,inhibition at 20 g/ha,[3]; 504 h,0%
same,inhibition at 60 g/ha,[3]; 504 h,0%
same,inhibition at 20 g/ha,[4],0%
same,inhibition at 60 g/ha,[4],0%
same,inhibition at 20 g/ha,Viola tricolor (VIOTR); 240 h,0%
same,inhibition at 60 g/ha,Viola tricolor (VIOTR); 240 h,0%
same,inhibition at 20 g/ha,Viola tricolor (VIOTR); 504 h,0%
same,inhibition at 60 g/ha,Viola tricolor (VIOTR); 504 h,0%
same,inhibition at 20 g/ha,[5]; 240 h,40%
same,inhibition at 20 g/ha,[6]; 240 h,0%
same,inhibition at 60 g/ha,[6]; 240 h,0%
same,inhibition at 20 g/ha,[6]; 504 h,0%
same,inhibition at 60 g/ha,[6]; 504 h,0%
same,inhibition at 20 g/ha,Oryza sativa (ORYSA); 240 h,90%
same,inhibition at 20 g/ha,Oryza sativa (ORYSA); 504 h,95%
same,inhibition at 20 g/ha,[7]; 240 h,0%
same,inhibition at 60 g/ha,[7]; 240 h,0%
same,inhibition at 20 g/ha,[7]; 504 h,0%
same,inhibition at 60 g/ha,[7]; 504 h,0%
same,inhibition at 20 g/ha,Avena fatua (AVEFA); 504 h,50%
same,inhibition at 60 g/ha,Zea mays (ZEAMX); 240 h,80%
COc1nc(OC)nc(C(=O)c2cccc(F)c2N(C)S(=O)(=O)C(F)F)n1 [A-1],inhibition at 4 g/ha,"[1]; ABUTH, 10 DAT, A-1 4 g of ai/ha",70%
same,inhibition at 12 g/ha,"[1]; ABUTH, 10 DAT, A-1 12 g of ai/ha",70%
same,inhibition at 4 g/ha,"[2]; 240 h, MATIN, 10 DAT, A-1 4 g of ai/ha",60%
same,inhibition at 4 g/ha,"[3]; 240 h, POLCO, 10 DAT, A-1 4 g of ai/ha",70%
same,inhibition at 12 g/ha,"[3]; 240 h, POLCO, 10 DAT, A-1 12 g of ai/ha",70%
same,inhibition at 12 g/ha,"Viola tricolor (VIOTR); 240 h, VIOTR, 10 DAT, A-1 12 g of ai/ha",20%
same,inhibition at 4 g/ha,"[6]; 240 h, 10 DAT",60%
same,inhibition at 12 g/ha,"[6]; 240 h, 10 DAT",60%
same,inhibition at 4 g/ha,"[6]; 504 h, 21 DAT",60%
same,inhibition at 12 g/ha,"[6]; 504 h, 21 DAT",65%
same,inhibition at 12 g/ha,"[7]; 240 h, AMARE, 10 DAT",70%
same,inhibition at 4 g/ha,"[7]; 504 h, AMARE, 21 DAT, A-1 4 g of ai/ha",70%
same,inhibition at 12 g/ha,"[7]; 504 h, AMARE, 21 DAT",75%
"CS(=O)(=O)c1ccc(C(=O)C2C(=O)CCCC2=O)c([N+](=O)[O-])c1 [B3-1, 2-[4-(methylsulfonyl)-2-nitrobenzoyl]-1,3-cyclohexanedione]",inhibition at 90 g/ha,"[5]; 504 h, TRZAS, 21 DAT, B3-1 90 g of ai/ha",30%
same,inhibition at 30 g/ha,"[8]; ALOMY, 21 DAT, B3-1 30 g of ai/ha",0%
same,inhibition at 90 g/ha,"[8]; ALOMY, 21 DAT, B3-1 90 g of ai/ha",30%
same,inhibition at 30 g/ha,"Setaria viridis (SETVI); SETVI, 21 DAT, B3-1 30 g of ai/ha",0%
same,inhibition at 90 g/ha,"Setaria viridis (SETVI); SETVI, 21 DAT, B3-1 90 g of ai/ha",20%
same,inhibition at 30 g/ha,"[9]; 240 h, LOLMU, 10 DAT, B3-1 30 g of ai/ha",30%
same,inhibition at 30 g/ha,"[9]; 504 h, LOLMU, 21 DAT, B3-1 30 g of ai/ha",0%
same,inhibition at 30 g/ha,Avena fatua (AVEFA); [10],0%
same,inhibition at 90 g/ha,Avena fatua (AVEFA); [11],0%
same,inhibition at 30 g/ha,"Avena fatua (AVEFA); 504 h, 21 DAT, B3-1 30 g of ai/ha",0%
same,inhibition at 90 g/ha,"Avena fatua (AVEFA); 504 h, 21 DAT, B3-1 90 g of ai/ha",0%
same,inhibition at 30 g/ha,Zea mays (ZEAMX); [10],0%
same,inhibition at 90 g/ha,Zea mays (ZEAMX); [11],20%
"CS(=O)(=O)c1ccc(C(=O)C2C(=O)CCCC2=O)c(Cl)c1COCC(F)(F)F [B3-3, 2-[2-chloro-4-(methylsulfonyl)-3-[(2,2,2-trifluoroethoxy)methyl]benzoyl]-1,3-cyclohexanedione]",inhibition at 30 g/ha,"[8]; ALOMY, 21 DAT, B3-3 30 g of ai/ha",40%
same,inhibition at 30 g/ha,"Setaria viridis (SETVI); SETVI, 21 DAT, B3-3 30 g of ai/ha",50%
same,inhibition at 30 g/ha,"[9]; 504 h, LOLMU, 21 DAT, B3-3 30 g of ai/ha",20%
same,inhibition at 90 g/ha,"[9]; 504 h, LOLMU, 21 DAT, B3-3 90 g of ai/ha",50%
same,inhibition at 90 g/ha,"Oryza sativa (ORYSA); 240 h, 10 DAT",40%
same,inhibition at 90 g/ha,"Oryza sativa (ORYSA); 504 h, 21 DAT",30%
same,inhibition at 30 g/ha,Avena fatua (AVEFA); [12],0%
same,inhibition at 90 g/ha,Avena fatua (AVEFA); [13],0%
same,inhibition at 30 g/ha,"Zea mays (ZEAMX); 240 h, 10 DAT, B3-3 30 g of ai/ha",0%
same,inhibition at 90 g/ha,"Zea mays (ZEAMX); 240 h, 10 DAT, B3-3 90 g of ai/ha",0%
same,inhibition at 30 g/ha,Zea mays (ZEAMX); [12],0%
same,inhibition at 90 g/ha,Zea mays (ZEAMX); [13],0%
"CS(=O)(=O)c1ccc(C(=O)C2C(=O)CCCC2=O)c(Cl)c1 [B3-2, 2-[2-chloro-4-(methylsulfonyl)benzoyl]-1,3-cyclohexanedione]",inhibition at 70 g/ha,[8],0%
same,inhibition at 210 g/ha,[8],20%
same,inhibition at 70 g/ha,Setaria viridis (SETVI),0%
same,inhibition at 210 g/ha,Setaria viridis (SETVI),20%
same,inhibition at 70 g/ha,[9]; 504 h,0%
same,inhibition at 70 g/ha,Avena fatua (AVEFA); 240 h,0%
same,inhibition at 70 g/ha,Avena fatua (AVEFA); 504 h,0%
same,inhibition at 210 g/ha,Avena fatua (AVEFA); 504 h,0%
same,inhibition at 70 g/ha,Zea mays (ZEAMX); 240 h,0%
same,inhibition at 210 g/ha,Zea mays (ZEAMX); 240 h,0%
same,inhibition at 70 g/ha,Zea mays (ZEAMX); 504 h,0%
same,inhibition at 210 g/ha,Zea mays (ZEAMX); 504 h,0%
